Experimental data reported in ChEMBL document CHEMBL1201862, “PubChem BioAssay data set” (2004).
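Protocol summary: plate cells (96-well), add compound at 5 concentrations, incubate 48 h, interpolate endpoints linearly. Here, GI50 denotes the concentration required for 50% inhibition of growth.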 Active and inactive are the calls of the source. Cut-off read from the data, not from the text of the source: active = GI50 up to about 1.1 µM and inactive = higher.

Columns and labels:
Test in all cases: NCI anticancer screen, dose series, 48 h
ACHN = system: ACHN
EKVX = system: EKVX
HCT-116 = system: HCT-116
K562 = system: K562
M14 = system: M14
MCF7 = system: MCF7
NCI-H23 = system: NCI-H23
NCI-H460 = system: NCI-H460
NCI-H522 = system: NCI-H522
RXF 393 = system: RXF 393
SF-268 = system: SF-268
SK-OV-3 = system: SK-OV-3
UACC-257 = system: UACC-257
UO-31 = system: UO-31
CCRF-CEM = system: CCRF-CEM
HOP-62 = system: HOP-62
Hs-578T = system: Hs-578T
LOX IMVI = system: LOX IMVI
OVCAR-3 = system: OVCAR-3
OVCAR-8 = system: OVCAR-8

Structure (SMILES)	GI50 (ACHN)	GI50 (EKVX)	GI50 (HCT-116)	GI50 (K562)	GI50 (M14)	GI50 (MCF7)	GI50 (NCI-H23)	GI50 (NCI-H460)	GI50 (NCI-H522)	GI50 (RXF 393)	GI50 (SF-268)	GI50 (SK-OV-3)	GI50 (UACC-257)	GI50 (UO-31)	GI50 (CCRF-CEM)	GI50 (HOP-62)	GI50 (Hs-578T)	GI50 (LOX IMVI)	GI50 (OVCAR-3)	GI50 (OVCAR-8)
COc1ccc(N2CC(=O)N(C(=O)COc3ccc(OCC(=O)N4C(=O)CN(c5ccc(OC)cc5)C4=S)cc3)C2=S)cc1	> 100 µM (inactive)	81.1 µM (inactive)	24 µM (inactive)	38.8 µM (inactive)	> 100 µM (inactive)	48.6 µM (inactive)	88.1 µM (inactive)	59.2 µM (inactive)	32.6 µM (inactive)	> 100 µM (inactive)	> 100 µM (inactive)	> 100 µM (inactive)	48.3 µM (inactive)	> 100 µM (inactive)	–	–	–	–	–	–
O=CN(CCN1CCCC1)C1CCc2cc(Cl)c(Cl)cc2C1 (stereo not drawn)	–	27.2 µM (inactive)	10.6 µM (inactive)	20.9 µM (inactive)	15.9 µM (inactive)	–	17.4 µM (inactive)	0.196 µM (active)	10.1 µM (inactive)	10.9 µM (inactive)	18.5 µM (inactive)	0.714 µM (active)	15.2 µM (inactive)	14.1 µM (inactive)	22.5 µM (inactive)	11.3 µM (inactive)	13.6 µM (inactive)	14 µM (inactive)	12.3 µM (inactive)	20.6 µM (inactive)
CC(=O)NC1=C(NCCN(C)C)C(=O)c2ccccc2C1=O	16.9 µM (inactive)	32.9 µM (inactive)	8.34 µM (inactive)	12.4 µM (inactive)	18.4 µM (inactive)	–	11.5 µM (inactive)	12.8 µM (inactive)	10.3 µM (inactive)	25.4 µM (inactive)	21.5 µM (inactive)	> 50 µM (inactive)	9.25 µM (inactive)	> 50 µM (inactive)	15.4 µM (inactive)	14.5 µM (inactive)	–	12.6 µM (inactive)	14.7 µM (inactive)	11.3 µM (inactive)
N#C/C(C(=O)Nc1ccccc1)=C(/N)N1CCOCC1	> 100 µM (inactive)	> 100 µM (inactive)	> 100 µM (inactive)	> 100 µM (inactive)	> 100 µM (inactive)	> 100 µM (inactive)	> 100 µM (inactive)	> 100 µM (inactive)	–	–	–	> 100 µM (inactive)	> 100 µM (inactive)	> 100 µM (inactive)	> 100 µM (inactive)	> 100 µM (inactive)	–	> 100 µM (inactive)	> 100 µM (inactive)	> 100 µM (inactive)
CC1=Nc2ccccc2NC(c2ccoc2)C1 (stereo not drawn)	> 100 µM (inactive)	> 100 µM (inactive)	> 100 µM (inactive)	> 100 µM (inactive)	> 100 µM (inactive)	–	> 100 µM (inactive)	> 100 µM (inactive)	> 100 µM (inactive)	> 100 µM (inactive)	> 100 µM (inactive)	> 100 µM (inactive)	> 100 µM (inactive)	> 100 µM (inactive)	> 100 µM (inactive)	> 100 µM (inactive)	–	> 100 µM (inactive)	> 100 µM (inactive)	> 100 µM (inactive)
SCCCSCCSCCCSCCS	–	> 100 µM (inactive)	> 100 µM (inactive)	97.9 µM (inactive)	87.9 µM (inactive)	> 100 µM (inactive)	85.9 µM (inactive)	> 100 µM (inactive)	> 100 µM (inactive)	–	> 100 µM (inactive)	> 100 µM (inactive)	> 100 µM (inactive)	80.9 µM (inactive)	31.7 µM (inactive)	> 100 µM (inactive)	–	> 100 µM (inactive)	> 100 µM (inactive)	> 100 µM (inactive)
Cc1cc(N(CCC#N)CCC#N)ccc1/N=N/c1ccc(Br)cc1	9.12 µM (inactive)	26.8 µM (inactive)	36.8 µM (inactive)	23.8 µM (inactive)	9.02 µM (inactive)	–	17.5 µM (inactive)	> 100 µM (inactive)	16.6 µM (inactive)	8.13 µM (inactive)	22.3 µM (inactive)	2.64 µM (inactive)	> 100 µM (inactive)	27.7 µM (inactive)	> 31.6 µM (inactive)	6.41 µM (inactive)	–	> 21.7 µM (inactive)	> 44.2 µM (inactive)	> 37.6 µM (inactive)
COc1ccc(-c2cc(-c3ccc(Nc4ccnc5cc(C(F)(F)F)ccc45)cc3)nc(N)c2C#N)cc1	> 100 µM (inactive)	> 100 µM (inactive)	23.2 µM (inactive)	> 100 µM (inactive)	96.8 µM (inactive)	35.9 µM (inactive)	> 100 µM (inactive)	> 100 µM (inactive)	–	> 100 µM (inactive)	–	> 100 µM (inactive)	–	> 100 µM (inactive)	–	43.6 µM (inactive)	–	33.3 µM (inactive)	14.6 µM (inactive)	–
